This series can be described thus: Solid form stability on storage over desiccant (XRPD, ion chromatography). How it is done:
X-ray Power Diffraction (XRPD), Reflection Mode: XRPD patterns were collected with a PANalytical X'Pert PRO MPD diffractometer using an incident beam of Cu Kα radiation produced using a long, fine-focus source and a nickel filter. The diffractometer was configured using the symmetric Bragg-Brentano geometry. […] A specimen of the sample was prepared as a thin, circular layer centered on a silicon zero-background substrate. Antiscatter slits (SS) were used to minimize the background generated by air. Soller slits for the incident and diffracted beams were used to minimize broadening from axial divergence. Diffraction patterns were collected using a scanning position-sensitive detector (X'Celerator) located 240 mm from the sample and Data Collector software v. 2.2b.
XRPD, Transmission Mode: XRPD patterns were collected with a PANalytical X'Pert PRO MPD diffractometer using an incident beam of Cu radiation produced using an Optix long, fine-focus source. An elliptically graded multilayer mirror was used to focus Cu Kα X-rays through the specimen and onto the detector. […] A specimen of the sample was sandwiched between 3-μm-thick films and analyzed in transmission geometry. A beam-stop, short antiscatter extension, antiscatter knife edge were used to minimize the background generated by air. Soller slits for the incident and diffracted beams were used to minimize broadening from axial divergence. Diffraction patterns were collected using a scanning position-sensitive detector (X'Celerator) located 240 mm from the specimen and Data Collector software v. 2.2b.
Form B was characterized by ^1H NMR, IC, DSC, and TGA.

Turning to `CP(=O)(O)CC[C@H](N)C(=O)O` [Form B], the “change in XRPD pattern upon storage over desiccant for 47 days” value (47 days over desiccant) is reported as “No significant changes”.

`CP(=O)(O)CC[C@H](N)C(=O)O.N` [Form A]: the “form change by XRPD upon storage over desiccant” value (Form A from 93/7 v/v methanol/water slurry, storage time not given) is “converted to Form B with minor additional peaks”. Besides, the “overall assessment of form stability” value (prone to conversion to Form B) is given as “metastable”. For `CP(=O)(O)CC[C@H](N)C(=O)O` [Form D], the “change in XRPD pattern upon storage over desiccant” value (sample of Form D+minor Form A, storage time not given) is “No significant changes”.

As for `CP(=O)(O)CC[C@H](N)C(=O)O.N` [Form C], the “ammonium content by IC after storage under desiccant for 36 days” value (sample of Form C with minor Form A, 6.3 wt % initially) came to 3.2 wt %. The “form change by XRPD after storage under desiccant for 36 days” value (sample of Form C with minor Form A, 36 days under desiccant) was “conversion to Form B with minor Form A and a few minor additional peaks”.

Source of the values: patent US11634442B2, “Methods for the purification of L-glufosinate” (BASF SE, priority 2017, dated 2023).
